Data as given in patent publication US20150086627A1, “DOSAGE FORMS OF HALOFUGINONE AND METHODS OF USE” (priority 2012, published 2015).
Structures can show the parent of a compound that is named as a salt. Where two headings read alike, the source gives them in different places.

Assays:
[1] = Plasma pharmacokinetics of halofuginone in male beagle dogs (Example B); assay type: in vivo; conditions: dog
Description: Five groups of five male beagle dogs (25 total dogs) were orally administered various compositions of halofuginone solutions. […] The dogs were fasted overnight prior to administration, and food was returned four hours post-administration. Plasma was drawn from each animal at the time of administration, and then at eight successive time points (0.5, 1, 2, 4, 8, 12, 24, and 48 hours post-administration).
The plasma samples, collected from the dogs at the various time points, were assayed for halofuginone concentrations using HPLC-MS/MS (ACE Excel 2C18 AR, 50×2.1 mm column). [Cmax: maximum observed halofuginone concentration; tmax: time point at Cmax; AUC(0-t): AUC to the last non-zero concentration (t is the corresponding time); AUC(0-∞): AUC(0-∞)=AUC(0-t)+AUC(t-∞); t1/2: half-life; time taken for drug plasma concentration to fall by one-half; Vz_obs: observed volume of distribution; Cl_obs: observed clearance]

beagle dogs = conditions: 6 Beagle dogs, oral solution 0.15 mg/kg
Description: Two groups of 6 male Beagle dogs were dosed with two formulations or two routes of administration of Halofuginone hydrobromide. In a cross-over study design, one group received an oral (PO) dose at ˜0.15 mg/kg as enteric-coated (EC) tablets in a gelatin capsule and then another oral dose at 0.15 mg/kg as a solution 7 days later. The second group received a subcutaneous (SC) dose at 0.03 mg/kg as a solution and then an intravenous (IV) dose at 0.05 mg/kg as a solution. The test article was administered once for each dose level and dosage form. The animals were dosed once a week or after completing at least a 7 day washout period. The dose formulations of Halofuginone hydrobromide were EC tablets or 0.3 mg/mL solutions. The EC tablets contained 0.075 mg of Halofuginone hydrobromide. The tablets (20/dog) were loaded into a gelatin capsule prior to dosing.
Each animal received a physical examination prior to dosing, with cage side observations for mortality and morbidity twice daily thereafter. Detailed clinical observations were performed prior to dosing and at 15 minute (min) intervals during the first 2 hours (h) postdose, at 4, 8, and 24 h postdose on dosing days. […]

[2] = Plasma pharmacokinetics of Halofuginone hydrobromide in Beagle dogs (Example C); conditions: dog, in vivo; for half-life: t1/2
Description: Blood samples were collected from the jugular, cephalic, or saphenous veins into tubes containing EDTA at the following time points: 0, 0.5, 1, 2, 4, 8, 12, 24, and 48 h postdose. Blood samples were kept on wet ice until processing. Blood samples were centrifuged at 3200 RPM for 10 min at ˜5° C. Plasma samples were directly transferred to a 96-well plate tube (1.1 mL). Plug caps were placed on the tubes. Plasma samples were stored at −20±5° C. until they were shipped for analysis.
Statistical analysis of PK parameters for dogs treated with both enteric and oral solutions were calculated using Excel® spreadsheets. Summary statistics were derived for the following PK parameters for each dog receiving both the dog EC tablets and the oral drug as a clear solution in Group 1: • Cmax (ng/mL): Maximum Observed Concentration • tmax (h): Time Point at Cmax • AUC(0−t) (ng·h/mL): AUC to the last non-zero concentration (t is the corresponding time) • AUC(0−∞) (ng·h/mL): AUC(0-∞)=AUC(0-t)+AUC(t-∞) • t1/2(h): Half-life; time taken for drug plasma concentration to fall by one-half • % F: Bioavailability; [AUC(0-t)×*Dose IV (mg/kg)]/[AUC(0-t)IV*Dose×(mg/kg)] Paired differences for each dog were determined by subtracting the summary PK value as follows: […]

dogs = assay: Previous study in dogs, daily oral dosing for up to 28 days; assay type: in vivo
Description: The dose levels were selected based on the results of a previous study in dogs in which the high-dose group was dosed at 0.15 mg/kg/day for up to 28 days (this dose was tolerated for the entire course of the study).

Plasmodium berghei = conditions: Plasmodium berghei-infected mice; cited from earlier work
mdx mice = conditions: cited from earlier work
cell lines = conditions: cited from earlier work
[3] = tested on: human leiomyosarcoma tumor cells; conditions: low concentrations; cells stimulated by serum or HB-EGF; cited from earlier work
[4] = tested on: vascular SMC and fibroblasts; conditions: cited from earlier work
mice = conditions: mouse, in vivo, cited from earlier work
[5] = male, beagle, in vivo, po, 0.15 mg/kg
[6] = male, Beagle, iv, 0.05 mg/kg, Mean Conc. (plasma)
[7] = male, Beagle, iv, 0.05 mg/kg, Sample Conc. (plasma)
[8] = male, Beagle, po, 0.15 mg/kg, Mean Conc. (plasma)
[9] = male, Beagle, sc, 0.03 mg/kg, Mean Conc. (plasma)
[10] = male, Beagle, sc, 0.03 mg/kg, Sample Conc. (plasma)

SMILES: O=C(C[C@@H]1NCCC[C@H]1O)Cn1cnc2cc(Br)c(Cl)cc2c1=O [Halofuginone hydrobromide, 7-Bromo-6-chloro-3-[3-[(2S,3R)-3-hydroxy-2-piperidinyl]-2-oxopropyl]-4-quinazolinone]
- half-life ([1]; plasma, male beagle dogs, oral 0.15 mg/kg aqueous solution, mean): 889 min
- AUC(0-inf) [1, 5]: 49.1 ng·h/mL
- AUC(0-t) [1, 5]: 39.5 ng·h/mL
- Cl_obs [1, 5]: 57.8 mL/min/kg
- Cmax [1, 5]: 5.26 ng/mL
- Tmax [1, 5]: 54 min
- Vz_obs [1, 5]: 70.73 L/kg
- animals with emesis (beagle dogs): 5 of 6
- episodes of emesis (total emetic events) (beagle dogs): 18
- absolute bioavailability versus oral solution [2]: increased
- Cmax ([2]; male, Beagle, iv, 0.05 mg/kg): 6.95 ng/mL
- concentration at 0.083 h [2, 6]: 6.96 ng/mL
- concentration at 0.5 h [2, 6]: 4.47 ng/mL
- concentration at 1 h [2, 6]: 3.81 ng/mL
- concentration at 2 h [2, 6]: 2.29 ng/mL
- concentration at 4 h [2, 6]: 1.74 ng/mL
- concentration at 8 h [2, 6]: 1.08 ng/mL
- concentration at 12 h [2, 6]: 0.76 ng/mL
- concentration at 24 h [2, 6]: 0.67 ng/mL
- concentration at 48 h [2, 6]: 0.23 ng/mL
- concentration at 0.083 h [2, 7]: 7.81 ng/mL
- concentration at 0.5 h [2, 7]: 5.52 ng/mL
- concentration at 1 h [2, 7]: 3.55 ng/mL
- concentration at 2 h [2, 7]: 2.13 ng/mL
- concentration at 8 h [2, 7]: 0.8 ng/mL
- half-life ([2]; male, Beagle, iv, 0.05 mg/kg): 621 min
- Tmax ([2]; male, Beagle, iv, 0.05 mg/kg, tmax): 4.8 min
- concentration at 0.5 h [2, 8]: 6.41 ng/mL
- concentration at 1 h [2, 8]: 4.97 ng/mL
- concentration at 2 h [2, 8]: 3.68 ng/mL
- concentration at 4 h [2, 8]: 1.87 ng/mL
- concentration at 8 h [2, 8]: 1.38 ng/mL
- concentration at 12 h [2, 8]: 1.14 ng/mL
- concentration at 24 h [2, 8]: 0.53 ng/mL
- concentration at 48 h [2, 8]: 0.2 ng/mL
- half-life ([2]; male, Beagle, po, 0.15 mg/kg): 810 min
- Tmax ([2]; male, Beagle, po, 0.15 mg/kg, tmax): 34.8 min
- Sample Conc. (plasma) ([2]; male, Beagle, sc, 0.03 mg/kg, 48 h): 0.12 ng/mL
- Cmax ([2]; male, Beagle, sc, 0.03 mg/kg): 3.66 ng/mL
- concentration at 0.5 h [2, 9]: 3.62 ng/mL
- concentration at 1 h [2, 9]: 1.79 ng/mL
- concentration at 2 h [2, 9]: 1.4 ng/mL
- concentration at 4 h [2, 9]: 1 ng/mL
- concentration at 8 h [2, 9]: 0.63 ng/mL
- concentration at 12 h [2, 9]: 0.51 ng/mL
- concentration at 24 h [2, 9]: 0.14 ng/mL
- concentration at 0.5 h [2, 10]: 2.82 ng/mL
- concentration at 1 h [2, 10]: 1.67 ng/mL
- concentration at 48 h [2, 10]: 0.16 ng/mL
- Tmax ([2]; male, Beagle, sc, 0.03 mg/kg, tmax): 30 min
- Tmax ([2]; male, beagle, po, 0.15 mg/kg): 60 min
- clinical signs of toxicity (dogs; 0.15 mg/kg/day for up to 28 days): emesis and decreased activity during the first week of dosing
- tolerability (dogs; high-dose group 0.15 mg/kg/day for up to 28 days): tolerated
- curative effects (Plasmodium berghei): displayed curative effects
- parasitemias (Plasmodium berghei): reduce parasitemias to undetectable levels
- muscle physiology / muscle regeneration (mdx mice): effective in improving muscle physiology and/or reducing the pressure on muscle regeneration
- angiogenesis inhibition (cell lines): effective angiogenesis inhibitor
- inhibition of DNA synthesis [3]: strong inhibitor of DNA synthesis
- growth of vascular SMC and fibroblasts [4]: inhibits autocrine growth of vascular SMC and fibroblasts
- gastrointestinal tract injuries (mice; 5 mg/kg): widespread gastrointestinal tract injuries, e.g., intestinal hemorrhage
- gastrointestinal tract injuries (mice; sc): did not experience the same levels of gastrointestinal tract injuries
